Experimental data taken from patent US20230357179A1, “RAF KINASE INHIBITORS AND METHODS OF USE THEREOF” (Deciphera Pharmaceuticals, LLC, priority 2021, published 2023).

Columns and labels:
A-Raf kinase = target: T1, A-Raf kinase (Homo sapiens, UniProt P10398, Y301D/Y302D); experiment: Biochemical assay for A-Raf.1 (coupled pyruvate kinase/lactate dehydrogenase); settings: read-out: ARAF.1 IC50
T1 construct: purchased Sigma
Summary of the method: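 A-Raf (5.55 nM) phosphorylating 30.1 nM MEK with 1 mM ATP was monitored by pyruvate kinase/lactate dehydrogenase-coupled NADH oxidation at 340 nm for 6 h at 30° C, in pH 7.5 Tris buffer with 15 mM MgCl2, 1% DMSO. Rates from 4–5 h gave percent inhibition; IC50 by four-parameter fit.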

B-Raf kinase = target: T2, B-Raf kinase (Homo sapiens, UniProt P15056); experiment: Biochemical assay for B-Raf.1 (coupled pyruvate kinase/lactate dehydrogenase); settings: read-out: BRAF.1 IC50
T2 construct: GST (N); purchased Sigma
T2 sequence (P15056 416-766): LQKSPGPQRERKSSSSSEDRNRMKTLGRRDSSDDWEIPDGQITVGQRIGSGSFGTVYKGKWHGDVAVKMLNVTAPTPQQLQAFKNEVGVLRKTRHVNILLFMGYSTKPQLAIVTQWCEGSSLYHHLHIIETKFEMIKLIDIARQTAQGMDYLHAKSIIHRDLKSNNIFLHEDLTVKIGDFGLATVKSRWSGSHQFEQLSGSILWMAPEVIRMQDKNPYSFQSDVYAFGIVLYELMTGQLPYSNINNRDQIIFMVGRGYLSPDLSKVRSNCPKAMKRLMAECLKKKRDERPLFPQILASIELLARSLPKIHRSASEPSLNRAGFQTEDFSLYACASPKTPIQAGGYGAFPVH
Summary of the method: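 NADH oxidation followed at 340 nm in a pyruvate kinase/lactate dehydrogenase-coupled assay with 0.13 nM B-Raf, 30.1 nM MEK substrate, 1 mM ATP, pH 7.5 Tris buffer, 1% DMSO. Monitored 6 h at 30 °C; rate taken from 4–5 h. IC50 from four-parameter sigmoidal fit.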

C-Raf kinase = target: T3, C-Raf kinase (Homo sapiens, UniProt P04049, Y340D/Y341D); experiment: Biochemical assay for C-Raf.1 (coupled pyruvate kinase/lactate dehydrogenase); settings: read-out: CRAF.1 IC50
T3 construct: Y340D,; GST (N); purchased Sigma
T3 sequence (P04049 307-648 Y340D/Y341D): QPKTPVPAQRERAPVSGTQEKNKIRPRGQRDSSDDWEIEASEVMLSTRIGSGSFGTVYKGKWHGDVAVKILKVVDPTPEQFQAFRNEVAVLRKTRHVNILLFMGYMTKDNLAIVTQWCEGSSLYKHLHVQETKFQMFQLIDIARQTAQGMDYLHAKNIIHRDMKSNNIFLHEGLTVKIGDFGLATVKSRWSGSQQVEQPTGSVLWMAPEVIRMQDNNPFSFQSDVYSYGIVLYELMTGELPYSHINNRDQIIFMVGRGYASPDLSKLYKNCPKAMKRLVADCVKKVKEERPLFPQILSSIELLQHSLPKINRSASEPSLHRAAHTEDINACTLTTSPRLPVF
Summary of the method: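 C-Raf (0.43 nM) with MEK 30.1 nM and 1 mM ATP in Tris pH 7.5/MgCl2 buffer, activity coupled via PK/LDH to NADH oxidation (A340), 6 h at 30° C. Rates from 4–5 h window converted to % inhibition versus controls; IC50 by four-parameter fit, 1% DMSO.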

A375 cells = experiment: A375 cell proliferation assay (1), resazurin, 96-well; type: cell-based; settings: Homo sapiens, A-375, inhibition of cell proliferation
Summary of the method: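 Viability was read by resazurin fluorescence at 540 nm excitation and 600 nm emission, using a 440 μM solution added for 5–6 h at the end of culture. IC50 came from the curve fit.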

T1 sequence (P10398 with tags, fused parts or gaps Y301D/Y302D): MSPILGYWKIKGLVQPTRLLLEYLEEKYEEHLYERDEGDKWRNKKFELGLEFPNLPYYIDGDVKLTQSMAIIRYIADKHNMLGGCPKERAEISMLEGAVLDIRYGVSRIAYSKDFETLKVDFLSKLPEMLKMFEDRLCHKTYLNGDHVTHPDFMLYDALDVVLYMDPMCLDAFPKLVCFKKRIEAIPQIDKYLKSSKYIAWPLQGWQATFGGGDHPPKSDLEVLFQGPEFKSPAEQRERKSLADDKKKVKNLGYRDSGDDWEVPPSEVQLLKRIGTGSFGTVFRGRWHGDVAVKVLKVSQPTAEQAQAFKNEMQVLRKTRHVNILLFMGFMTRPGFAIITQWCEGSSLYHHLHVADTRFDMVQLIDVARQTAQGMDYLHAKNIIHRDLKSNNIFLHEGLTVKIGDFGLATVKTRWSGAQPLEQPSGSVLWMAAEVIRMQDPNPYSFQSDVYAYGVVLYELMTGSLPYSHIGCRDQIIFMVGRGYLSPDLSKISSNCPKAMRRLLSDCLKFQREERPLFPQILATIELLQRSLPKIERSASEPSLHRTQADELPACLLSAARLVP

Row | SMILES | IC50 (A-Raf kinase) [nM] | IC50 (B-Raf kinase) [nM] | IC50 (C-Raf kinase) [nM] | IC50 (A375 cells) [nM]
1 | COC(=O)Nc1cc(-c2nccc(-c3cc(NC(=O)NCCC(C)(C)OC)c(F)cc3C)n2)ccn1 [Example 129] | > 1000 | ≤ 100 | ≤ 100 | 1000 to 10000
2 | COC[C@@H]1CCN(C(=O)Nc2cc(-c3cc(-c4ccnc(NC(=O)OC)c4)cnn3)c(C)cc2F)C1 [Example 149] | > 1000 | 500 to 1000 | 500 to 1000 | 1000 to 10000
3 | COC1(CCNC(=O)Nc2cnc(C)c(-c3ccnc(-c4ccnc(NC(=O)C5CC5)c4)n3)c2)CC1 [Example 137] | > 1000 | 100 to 500 | ≤ 100 | 1000 to 10000
4 | Cc1cc(F)c(NC(=O)NCCC(C)(C)C)cc1-c1cc(-c2ccnc(NC(=O)C3CC3)c2)cnn1 [Example 131] | 100 to 500 | ≤ 100 | ≤ 100 | ≤ 100
5 | Cc1cc(F)c(NC(=O)NC2CC3(COC3)C2)cc1-c1cc(OCCO)nc(-c2ccnc3[nH]ncc23)c1 [Example 101] | > 1000 | 100 to 500 | ≤ 100 | 1000 to 10000
6 | COC[C@H]1CCN(C(=O)Nc2cnc(C)c(-c3cc(OCCO)nc(-c4ccnc(NC(=O)OC)c4)c3)c2)C1 [Example 152] | > 1000 | 100 to 500 | 100 to 500 | 1000 to 10000
7 | Cc1ncc(NC(=O)NCCC(C)(C)C)cc1-c1cc(-c2ccnc(NC(=O)C3CC3)c2)cnn1 [Example 120] | > 1000 | ≤ 100 | ≤ 100 | 1000 to 10000
8 | Cc1cc(F)c(NC(=O)NCCC(C)(C)F)cc1-c1ccnc(-c2ccnc(NC(=O)C3CC3)c2)n1 [Example 128] | 100 to 500 | ≤ 100 | ≤ 100 | 1000 to 10000
9 | Cc1cc(F)c(NC(=O)NCCC(C)(C)F)cc1-c1cccc(-c2cc(NC(=O)C3CC3)ncn2)c1 [Example 127] | 100 to 500 | ≤ 100 | ≤ 100 | 1000 to 10000
10 | Cc1ncc(NC(=O)NCCC2(C)CC2)cc1-c1ccnc(-c2ccnc(NC(=O)C3CC3)c2)n1 [Example 107] | 500 to 1000 | ≤ 100 | ≤ 100 | 1000 to 10000
11 | Cc1ncc(NC(=O)NCCC(C)(C)F)cc1-c1ccnc(-c2ccnc(NC(=O)C3CC3)c2)n1 [Example 136] | > 1000 | ≤ 100 | ≤ 100 | 1000 to 10000
12 | COC(=O)Nc1cc(-c2cc(-c3cc(NC(=O)NCCC(C)(C)C)cnc3C)ccn2)ccn1 [Example 109] | > 1000 | ≤ 100 | ≤ 100 | 1000 to 10000
13 | COC(=O)Nc1cc(-c2nccc(-c3cc(NC(=O)NCCC4(OC)CC4)cnc3C)n2)ccn1 [Example 143] | > 1000 | 500 to 1000 | 100 to 500 | 1000 to 10000
14 | COC1(CCNC(=O)Nc2cc(-c3cccc(-c4cc(NC(=O)C5CC5)ncn4)c3)c(C)cc2F)CC1 [Example 104] | 100 to 500 | ≤ 100 | ≤ 100 | 1000 to 10000
15 | Cc1cc(F)c(NC(=O)NCC23CC(F)(C2)C3)cc1-c1cc(OCCO)nc(-c2ccnc3[nH]ncc23)c1 [Example 111] | > 1000 | ≤ 100 | ≤ 100 | 1000 to 10000
16 | COC(=O)Nc1cc(-c2cc(-c3cc(NC(=O)N[C@H]4C[C@](C)(F)C4)cnc3C)cc(OCCO)n2)ccn1 [Example 157] | > 1000 | ≤ 100 | ≤ 100 | 1000 to 10000
17 | COC(=O)Nc1cc(-c2cnnc(-c3cc(NC(=O)NCCC(C)(C)OC)c(F)cc3C)c2)ccn1 [Example 140] | > 1000 | 100 to 500 | 100 to 500 | 1000 to 10000

Row | SMILES | IC50 (A-Raf kinase) [nM] | IC50 (B-Raf kinase) [nM] | IC50 (C-Raf kinase) [nM] | IC50 (A375 cells) [nM]
18 | Cc1cc(F)c(NC(=O)NCCC(C)(C)C)cc1-c1cc(N2CCOCC2)nc(N2CCOCC2)c1 [Example 10] | > 1000 | ≤ 100 | ≤ 100 | 100 to 500
19 | COC(=O)Nc1cc(-c2cc(-c3cc(NC(=O)NCCC4(OC)CC4)c(F)cc3C)ccn2)ccn1 [Example 145] | > 1000 | ≤ 100 | ≤ 100 | 1000 to 10000
20 | COC(=O)Nc1cc(-c2cc(-c3cc(NC(=O)NCCC4(C)CC4)cnc3C)cc(OCCO)n2)ccn1 [Example 151] | > 1000 | ≤ 100 | ≤ 100 | 1000 to 10000
21 | Cc1ncc(NC(=O)NC2CC(C)(C)C2)cc1-c1cc(OCCO)nc(-c2ccnc(NC(=O)C3CC3)c2)n1 [Example 144] | > 1000 | ≤ 100 | ≤ 100 | 500 to 1000
22 | Cc1cc(F)c(NC(=O)NCCC(C)(C)F)cc1-c1cc(OCCO)nc(-c2ccnc3[nH]ccc23)c1 [Example 97] | > 1000 | ≤ 100 | ≤ 100 | 1000 to 10000
23 | COC(=O)Nc1cc(-c2nc(OCCO)cc(-c3cc(NC(=O)NC4CC(C)(C)C4)c(F)cc3C)n2)ccn1 [Example 158] | > 1000 | ≤ 100 | ≤ 100 | ≤ 100
24 | Cc1cc(F)c(NC(=O)NC2CC(C)(C)C2)cc1-c1cc(OCCO)nc(-c2ccnc(NC(=O)C3CC3)c2)n1 [Example 167] | 500 to 1000 | ≤ 100 | ≤ 100 | ≤ 100
25 | COC(=O)Nc1cc(-c2cc(-c3cc(NC(=O)NCCN4CCC4)c(F)cc3C)cc(OCCO)n2)ccn1 [Example 125] | > 1000 | > 1000 | > 1000 | 1000 to 10000
26 | COC(=O)Nc1cc(-c2cccc(-c3cc(NC(=O)NCCC4(OC)CC4)cnc3C)c2)ncn1 [Example 138] | > 1000 | 100 to 500 | ≤ 100 | 1000 to 10000
27 | Cc1ccc(NC(=O)NCCC(C)(C)C)cc1-c1cc(N2CCOCC2)nc(N2CCOCC2)c1 [Example 4] | > 1000 | ≤ 100 | ≤ 100 | 500 to 1000
28 | COC(=O)Nc1cc(-c2cccc(-c3cc(NC(=O)NCCC4(C)CC4)cnc3C)c2)ncn1 [Example 170] | > 1000 | ≤ 100 | ≤ 100 | 500 to 1000
29 | COC(=O)Nc1cc(-c2cc(-c3cc(NC(=O)NCCC(C)C)c(F)cc3C)cc(OCCO)n2)ccn1 [Example 115] | > 1000 | ≤ 100 | ≤ 100 | 100 to 500
30 | Cc1cc(F)c(NC(=O)NCCC2(C)CC2)cc1-c1ccnc(-c2ccnc(NC(=O)C3CC3)c2)c1 [Example 134] | 500 to 1000 | ≤ 100 | ≤ 100 | 1000 to 10000
31 | Cc1cc(F)c(NC(=O)NCCC(C)C)cc1-c1cc(OCCO)nc(-c2ccnc(NC(=O)C3CC3)c2)c1 [Example 106] | > 1000 | ≤ 100 | ≤ 100 | 100 to 500
32 | COC(=O)Nc1cc(-c2cnnc(-c3cc(NC(=O)N4CCC(CC(F)(F)F)C4)c(F)cc3C)c2)ccn1 (stereo not drawn) [Example 150] | > 1000 | ≤ 100 | ≤ 100 | 1000 to 10000
33 | COC(=O)Nc1cc(-c2cc(-c3cc(NC(=O)NCCC(C)(C)OC)c(F)cc3F)ccn2)ccn1 [Example 163] | > 1000 | 100 to 500 | 100 to 500 | 1000 to 10000
